Assay results taken from the NIST ThermoML archive (doi:10.1016/j.jct.2015.09.002).
Numbers after ± are expanded uncertainties.

Experiment: xn = mol fraction of the nth substance listed
Settings: 93.2 kPa, Liquid, Vibrating tube method

CCCCN [1-butanamine] + CC#N
mass density (293.15 K, x2 = 0): 737.12 ± 2 kg/m3 | mass density (293.15 K, x2 = 0.0102): 737.48 ± 2 kg/m3 | mass density (293.15 K, x2 = 0.0229): 737.89 ± 2 kg/m3 | mass density (293.15 K, x2 = 0.0481): 738.62 ± 2 kg/m3 | mass density (293.15 K, x2 = 0.0616): 738.99 ± 2 kg/m3 | mass density (293.15 K, x2 = 0.2006): 742.87 ± 2 kg/m3 | mass density (293.15 K, x2 = 0.35): 747.75 ± 2 kg/m3 | mass density (293.15 K, x2 = 0.4): 749.52 ± 2 kg/m3 | mass density (293.15 K, x2 = 0.4503): 751.36 ± 2 kg/m3 | mass density (293.15 K, x2 = 0.5007): 753.36 ± 2 kg/m3 | mass density (293.15 K, x2 = 0.5489): 755.38 ± 2 kg/m3 | mass density (293.15 K, x2 = 0.6002): 757.66 ± 2 kg/m3 | mass density (293.15 K, x2 = 0.6492): 759.99 ± 2 kg/m3 | mass density (293.15 K, x2 = 0.6998): 762.57 ± 2 kg/m3 | mass density (293.15 K, x2 = 0.7488): 765.21 ± 2 kg/m3 | mass density (293.15 K, x2 = 0.7997): 768.18 ± 2 kg/m3 | mass density (293.15 K, x2 = 0.85): 771.3 ± 2 kg/m3 | mass density (293.15 K, x2 = 0.9004): 774.67 ± 2 kg/m3 | mass density (293.15 K, x2 = 0.9188): 775.96 ± 2 kg/m3 | mass density (293.15 K, x2 = 0.9498): 778.23 ± 2 kg/m3 | mass density (293.15 K, x2 = 0.96): 779.01 ± 2 kg/m3 | mass density (293.15 K, x2 = 0.9694): 779.73 ± 2 kg/m3 | mass density (293.15 K, x2 = 0.9804): 780.56 ± 2 kg/m3 | mass density (293.15 K, x2 = 0.9892): 781.24 ± 2 kg/m3 | mass density (298.15 K, x2 = 0): 732.33 ± 2 kg/m3 | mass density (298.15 K, x2 = 0.0102): 732.7 ± 2 kg/m3 | mass density (298.15 K, x2 = 0.0229): 733.1 ± 2 kg/m3 | mass density (298.15 K, x2 = 0.0481): 733.83 ± 2 kg/m3 | mass density (298.15 K, x2 = 0.0616): 734.2 ± 2 kg/m3 | mass density (298.15 K, x2 = 0.2006): 738.04 ± 2 kg/m3 | mass density (298.15 K, x2 = 0.35): 742.84 ± 2 kg/m3 | mass density (298.15 K, x2 = 0.4): 744.61 ± 2 kg/m3 | mass density (298.15 K, x2 = 0.4503): 746.43 ± 2 kg/m3 | mass density (298.15 K, x2 = 0.5007): 748.41 ± 2 kg/m3 | mass density (298.15 K, x2 = 0.5489): 750.41 ± 2 kg/m3 | mass density (298.15 K, x2 = 0.6002): 752.67 ± 2 kg/m3 | mass density (298.15 K, x2 = 0.6492): 754.96 ± 2 kg/m3 | mass density (298.15 K, x2 = 0.6998): 757.51 ± 2 kg/m3 | mass density (298.15 K, x2 = 0.7488): 760.11 ± 2 kg/m3 | mass density (298.15 K, x2 = 0.7997): 763.02 ± 2 kg/m3 | mass density (298.15 K, x2 = 0.85): 766.08 ± 2 kg/m3 | mass density (298.15 K, x2 = 0.9004): 769.4 ± 2 kg/m3 | mass density (298.15 K, x2 = 0.9188): 770.66 ± 2 kg/m3 | mass density (298.15 K, x2 = 0.9498): 772.9 ± 2 kg/m3 | mass density (298.15 K, x2 = 0.96): 773.67 ± 2 kg/m3 | mass density (298.15 K, x2 = 0.9694): 774.38 ± 2 kg/m3 | mass density (298.15 K, x2 = 0.9804): 775.21 ± 2 kg/m3 | mass density (298.15 K, x2 = 0.9892): 775.87 ± 2 kg/m3 | mass density (303.15 K, x2 = 0): 727.51 ± 2 kg/m3 | mass density (303.15 K, x2 = 0.0102): 727.88 ± 2 kg/m3 | mass density (303.15 K, x2 = 0.0229): 728.28 ± 2 kg/m3 | mass density (303.15 K, x2 = 0.0481): 729.01 ± 2 kg/m3 | mass density (303.15 K, x2 = 0.0616): 729.37 ± 2 kg/m3 | mass density (303.15 K, x2 = 0.2006): 733.19 ± 2 kg/m3 | mass density (303.15 K, x2 = 0.35): 737.89 ± 2 kg/m3 | mass density (303.15 K, x2 = 0.4): 739.64 ± 2 kg/m3 | mass density (303.15 K, x2 = 0.4503): 741.47 ± 2 kg/m3 | mass density (303.15 K, x2 = 0.5007): 743.43 ± 2 kg/m3 | mass density (303.15 K, x2 = 0.5489): 745.4 ± 2 kg/m3 | mass density (303.15 K, x2 = 0.6002): 747.61 ± 2 kg/m3 | mass density (303.15 K, x2 = 0.6492): 749.88 ± 2 kg/m3 | mass density (303.15 K, x2 = 0.6998): 752.4 ± 2 kg/m3 | mass density (303.15 K, x2 = 0.7488): 754.97 ± 2 kg/m3 | mass density (303.15 K, x2 = 0.7997): 757.82 ± 2 kg/m3 | mass density (303.15 K, x2 = 0.85): 760.83 ± 2 kg/m3 | mass density (303.15 K, x2 = 0.9004): 764.09 ± 2 kg/m3 | mass density (303.15 K, x2 = 0.9188): 765.33 ± 2 kg/m3 | mass density (303.15 K, x2 = 0.9498): 767.54 ± 2 kg/m3 | mass density (303.15 K, x2 = 0.96): 768.29 ± 2 kg/m3 | mass density (303.15 K, x2 = 0.9694): 769 ± 2 kg/m3 | mass density (303.15 K, x2 = 0.9804): 769.81 ± 2 kg/m3 | mass density (303.15 K, x2 = 0.9892): 770.46 ± 2 kg/m3 | mass density (308.15 K, x2 = 0): 722.66 ± 2 kg/m3 | mass density (308.15 K, x2 = 0.0102): 723.03 ± 2 kg/m3 | mass density (308.15 K, x2 = 0.0229): 723.42 ± 2 kg/m3 | mass density (308.15 K, x2 = 0.0481): 724.14 ± 2 kg/m3 | mass density (308.15 K, x2 = 0.0616): 724.51 ± 2 kg/m3 | mass density (308.15 K, x2 = 0.2006): 728.3 ± 2 kg/m3 | mass density (308.15 K, x2 = 0.35): 732.98 ± 2 kg/m3 | mass density (308.15 K, x2 = 0.4): 734.69 ± 2 kg/m3 | mass density (308.15 K, x2 = 0.4503): 736.49 ± 2 kg/m3 | mass density (308.15 K, x2 = 0.5007): 738.41 ± 2 kg/m3 | mass density (308.15 K, x2 = 0.5489): 740.35 ± 2 kg/m3 | mass density (308.15 K, x2 = 0.6002): 742.54 ± 2 kg/m3 | mass density (308.15 K, x2 = 0.6492): 744.78 ± 2 kg/m3 | mass density (308.15 K, x2 = 0.6998): 747.24 ± 2 kg/m3 | mass density (308.15 K, x2 = 0.7488): 749.77 ± 2 kg/m3 | mass density (308.15 K, x2 = 0.7997): 752.57 ± 2 kg/m3 | mass density (308.15 K, x2 = 0.85): 755.54 ± 2 kg/m3 | mass density (308.15 K, x2 = 0.9004): 758.76 ± 2 kg/m3 | mass density (308.15 K, x2 = 0.9188): 759.98 ± 2 kg/m3 | mass density (308.15 K, x2 = 0.9498): 762.15 ± 2 kg/m3 | mass density (308.15 K, x2 = 0.96): 762.89 ± 2 kg/m3 | mass density (308.15 K, x2 = 0.9694): 763.59 ± 2 kg/m3 | mass density (308.15 K, x2 = 0.9804): 764.38 ± 2 kg/m3 | mass density (308.15 K, x2 = 0.9892): 765.03 ± 2 kg/m3
